Activity calls are given as the source filed them. No rule for the calls is given here.
Tested on: CCRIS mutagenicity, Ames/micronucleus/aberration tests
Experiment: CCRIS mutagenicity studies
[1] = Test System: AMES SALMONELLA TYPHIMURIUM, Strain/Indicator: TA98, Metabolic Activation: NONE, Method: PREINCUBATION
[2] = Test System: AMES SALMONELLA TYPHIMURIUM, Strain/Indicator: TA100, Metabolic Activation: NONE, Method: PREINCUBATION
[3] = Test System: AMES SALMONELLA TYPHIMURIUM, Strain/Indicator: TA100, Metabolic Activation: NONE, Method: STANDARD PLATE

In the case of `N[C@@H](CCS/C(Cl)=C/Cl)C(=O)O`, the mutagenic call (Test System: AMES SALMONELLA TYPHIMURIUM, Strain/Indicator: TA2638, Metabolic Activation: NONE, Method: PREINCUBATION) is reported as “inactive; negative” and the mutagenic call (Test System: AMES SALMONELLA TYPHIMURIUM, Strain/Indicator: TA2638, Metabolic Activation: RAT, KIDNEY, CYTOSOL, Method: PREINCUBATION) is reported as “active; positive”.
For `CO/N=C(\C(=O)N[C@@H]1C(=O)N2C(C(=O)OCOC(=O)C(C)(C)C)=C(/C=C\c3scnc3C)CS[C@H]12)c1csc(N)n1`, the mutagenic call [1] was “inactive; negative”, the mutagenic call (Test System: AMES SALMONELLA TYPHIMURIUM, Strain/Indicator: TA98, Metabolic Activation: RAT, LIVER, S-9, PHENOBARBITAL AND 5,6-BENZOFLAVONE, Method: PREINCUBATION) was “inactive; negative” and the mutagenic call [2] was “inactive; negative”. For the same molecule, the mutagenic call (Test System: AMES SALMONELLA TYPHIMURIUM, Strain/Indicator: TA100, Metabolic Activation: RAT, LIVER, S-9, PHENOBARBITAL AND 5,6-BENZOFLAVONE, Method: PREINCUBATION) was “inactive; negative”, the mutagenic call (Test System: AMES SALMONELLA TYPHIMURIUM, Strain/Indicator: TA1535, Metabolic Activation: NONE, Method: PREINCUBATION) was “inactive; negative” and the mutagenic call (Test System: AMES SALMONELLA TYPHIMURIUM, Strain/Indicator: TA1535, Metabolic Activation: RAT, LIVER, S-9, PHENOBARBITAL AND 5,6-BENZOFLAVONE, Method: PREINCUBATION) was “inactive; negative”. The mutagenic call (Test System: AMES SALMONELLA TYPHIMURIUM, Strain/Indicator: TA1537, Metabolic Activation: NONE, Method: PREINCUBATION) was “inactive; negative”, the mutagenic call (Test System: AMES SALMONELLA TYPHIMURIUM, Strain/Indicator: TA1537, Metabolic Activation: RAT, LIVER, S-9, PHENOBARBITAL AND 5,6-BENZOFLAVONE, Method: PREINCUBATION) was “inactive; negative” and the mutagenic call (Test System: AMES SALMONELLA TYPHIMURIUM, Strain/Indicator: TA1538, Metabolic Activation: NONE, Method: PREINCUBATION) was “inactive; negative”. The mutagenic call (Test System: AMES SALMONELLA TYPHIMURIUM, Strain/Indicator: TA1538, Metabolic Activation: RAT, LIVER, S-9, PHENOBARBITAL AND 5,6-BENZOFLAVONE, Method: PREINCUBATION) was “inactive; negative”, the mutagenic call (Test System: E. COLI, Strain/Indicator: WP2 UVRA, Metabolic Activation: NONE, Method: PREINCUBATION) was “inactive; negative” and the mutagenic call (Test System: E. COLI, Strain/Indicator: WP2 UVRA, Metabolic Activation: RAT, LIVER, S-9, PHENOBARBITAL AND 5,6-BENZOFLAVONE, Method: PREINCUBATION) was “inactive; negative”. For the same molecule, the mutagenic call (Test System: MOUSE LYMPHOMA, Strain/Indicator: L5178Y (TK+/TK-), Metabolic Activation: NONE) was “inactive; negative”, the mutagenic call (Test System: MOUSE LYMPHOMA, Strain/Indicator: L5178Y (TK+/TK-), Metabolic Activation: RAT, LIVER, S-9, PHENOBARBITAL AND 5,6-BENZOFLAVONE) was “inactive; negative” and the mutagenic call (Test System: UDS RAT STOMACH MUCOSA CELLS, Strain/Indicator: THY INCORP, Metabolic Activation: NONE, Method: IN VIVO-IN VITRO) was “inactive; negative”.
`OCC(CO)NC1CC(O)(CO)C(O)C(O)C1O` (stereo not drawn) was tested, and the mutagenic call (Test System: AMES SALMONELLA TYPHIMURIUM, Strain/Indicator: TA98, Metabolic Activation: NONE) was “inactive; negative”, the mutagenic call (Test System: AMES SALMONELLA TYPHIMURIUM, Strain/Indicator: TA98, Metabolic Activation: RAT, LIVER, S-9, SODIUM PHENOBARBITAL AND 5,6-BENZOFLAVONE) was “inactive; negative” and the mutagenic call (Test System: AMES SALMONELLA TYPHIMURIUM, Strain/Indicator: TA100, Metabolic Activation: NONE) was “inactive; negative”. The mutagenic call (Test System: AMES SALMONELLA TYPHIMURIUM, Strain/Indicator: TA100, Metabolic Activation: RAT, LIVER, S-9, SODIUM PHENOBARBITAL AND 5,6-BENZOFLAVONE) was “inactive; negative”, the mutagenic call (Test System: AMES SALMONELLA TYPHIMURIUM, Strain/Indicator: TA1535, Metabolic Activation: NONE) was “inactive; negative” and the mutagenic call (Test System: AMES SALMONELLA TYPHIMURIUM, Strain/Indicator: TA1535, Metabolic Activation: RAT, LIVER, S-9, SODIUM PHENOBARBITAL AND 5,6-BENZOFLAVONE) was “inactive; negative”. The mutagenic call (Test System: AMES SALMONELLA TYPHIMURIUM, Strain/Indicator: TA1537, Metabolic Activation: NONE) was “inactive; negative”, the mutagenic call (Test System: AMES SALMONELLA TYPHIMURIUM, Strain/Indicator: TA1537, Metabolic Activation: RAT, LIVER, S-9, SODIUM PHENOBARBITAL AND 5,6-BENZOFLAVONE) was “inactive; negative” and the mutagenic call (Test System: E. COLI, Strain/Indicator: WP2 UVRA, Metabolic Activation: NONE) was “inactive; negative”. For the same molecule, the mutagenic call (Test System: E. COLI, Strain/Indicator: WP2 UVRA, Metabolic Activation: RAT, LIVER, S-9, SODIUM PHENOBARBITAL AND 5,6-BENZOFLAVONE) was “inactive; negative”.
`O=[N+]([O-])c1cccc2c1ccc1cccc([N+](=O)[O-])c12` was tested, and the mutagenic call (Test System: AMES SALMONELLA TYPHIMURIUM, Strain/Indicator: TA98(1,8-DNP6), Metabolic Activation: NONE, Method: STANDARD PLATE) was “active; positive”, the mutagenic call (Test System: AMES SALMONELLA TYPHIMURIUM, Strain/Indicator: TA98(NR), Metabolic Activation: NONE, Method: STANDARD PLATE) was “active; positive” and the mutagenic call (Test System: AMES SALMONELLA TYPHIMURIUM, Strain/Indicator: TA98, Metabolic Activation: NONE, Method: STANDARD PLATE) was “active; positive”. The mutagenic call [3] was “active; positive”, the mutagenic call (Test System: AMES SALMONELLA TYPHIMURIUM, Strain/Indicator: YG1021, Metabolic Activation: NONE, Method: STANDARD PLATE) was “active; positive” and the mutagenic call (Test System: AMES SALMONELLA TYPHIMURIUM, Strain/Indicator: YG1024, Metabolic Activation: NONE, Method: STANDARD PLATE) was “active; positive”. For the same molecule, the mutagenic call (Test System: AMES SALMONELLA TYPHIMURIUM, Strain/Indicator: YG1026, Metabolic Activation: NONE, Method: STANDARD PLATE) was “active; positive” and the mutagenic call (Test System: AMES SALMONELLA TYPHIMURIUM, Strain/Indicator: YG1029, Metabolic Activation: NONE, Method: STANDARD PLATE) was “active; positive”.
In the case of `CCN(C)N=O`, the mutagenic call (Test System: AMES SALMONELLA TYPHIMURIUM, Strain/Indicator: TA100, Metabolic Activation: HAMSTER, LIVER, S-9, Method: PREINCUBATION) is reported as “active; positive”, the mutagenic call (Test System: AMES SALMONELLA TYPHIMURIUM, Strain/Indicator: TA100, Metabolic Activation: HUMAN, LIVER, S-9, Method: PREINCUBATION) is reported as “inactive; negative” and the mutagenic call (Test System: AMES SALMONELLA TYPHIMURIUM, Strain/Indicator: TA100, Metabolic Activation: PIG, LIVER, S-9, Method: PREINCUBATION) is reported as “inactive; negative”. The mutagenic call (Test System: AMES SALMONELLA TYPHIMURIUM, Strain/Indicator: TA100, Metabolic Activation: RAT, LIVER, S-9, Method: PREINCUBATION) was “inactive; negative”.
`O=C1CCO1` was tested, and the mutagenic call [3] was “active; positive”, the mutagenic call (Test System: AMES SALMONELLA TYPHIMURIUM, Strain/Indicator: TA100, Metabolic Activation: RAT, LIVER, S-9, KC500 OR PHENOBARBITAL, Method: LIQUID SUSPENSION) was “active; positive” and the mutagenic call (Test System: AMES SALMONELLA TYPHIMURIUM, Strain/Indicator: TA1535, Metabolic Activation: NONE, Method: STANDARD PLATE) was “active; positive”. The mutagenic call (Test System: CHINESE HAMSTER V-79, Strain/Indicator: V-79/6-THIOGUANINE, Metabolic Activation: NONE, Method: FLASK ASSAY) was “active; positive”, the mutagenic call (Test System: MOUSE LYMPHOMA, Strain/Indicator: L5178Y (TK+/TK-), Metabolic Activation: NONE, Method: SUSPENSION/PLATE) was “active; positive” and the mutagenic call (Test System: MOUSE LYMPHOMA, Strain/Indicator: L5178Y (TK+/TK-), Metabolic Activation: RAT, LIVER, S-9, AROCLOR 1254, Method: SUSPENSION/PLATE) was “active; positive”. For the same molecule, the mutagenic call (Test System: UDS HUMAN FIBROBLASTS, Strain/Indicator: THY INCORP (NON-S-PHASE), Metabolic Activation: NONE, Method: LIQUID SCINTILLATION COUNTING) was “active; positive”, the mutagenic call (Test System: UDS HUMAN LYMPHOCYTES, Strain/Indicator: THY INCORP (NON-S-PHASE), Metabolic Activation: NONE, Method: LIQUID SCINTILLATION COUNTING) was “active; positive” and the mutagenic call (Test System: UDS RODENT PRIMARY CELLS, Strain/Indicator: THY INCORP (NON-S-PHASE), Metabolic Activation: NONE, Method: AUTORADIOGRAPHY) was “active; positive”.
`O=[N+]([O-])c1ccc2c(c1)Cc1cc(O)ccc1-2` was tested, and the mutagenic call [1] was “active; positive” and the mutagenic call (Test System: AMES SALMONELLA TYPHIMURIUM, Strain/Indicator: TA98, Metabolic Activation: S-9, Method: PREINCUBATION) was “active; positive”.
In the case of `Cc1ccc([N+](=O)[O-])cc1C`, the mutagenic call [1] is reported as “inactive; negative”, the mutagenic call (Test System: AMES SALMONELLA TYPHIMURIUM, Strain/Indicator: TA98, Metabolic Activation: RAT, LIVER, S-9, KANECHLOR 500, Method: PREINCUBATION) is reported as “inactive; negative” and the mutagenic call [2] is reported as “inactive; negative”.

Reference: PubChem BioAssay AID1259407 (Chemical Carcinogenesis Research Information System (CCRIS), 2018)
